The values below are quoted from earlier work in publication PMC2837554 (ChemMedChem, 2010).

Structures are written as SMILES.

The Kd is the equilibrium constant for the complex coming apart.

For one data set, the target named is aggregated Aβ. The following applies: reported value.

As for `CN(C)c1ccc(/C=C/C2=CC(=C/C=C3C=CC(=[N+](C)C)C=C3)/O[B-](F)(F)O2)cc1` [CRANAD-2], the dissociation constant Kd at Aβ aggregates is 0.038 µM.
As for `Cc1ccc2c(c1)sc(-c1ccc(N(C)C)cc1)[n+]2C` [ThT, Thioflavin T], the Kd on aggregated Aβ is 2 µM.
